Tested on: E. grisescens larvae
Assay: Toxicity testing of 2,4-di-tert-butylphenol in artificial food fed to E. grisescens larvae
Format: in vivo, Ectropis grisescens
Conditions: 100 mg/L in sterile artificial food, 48 hours
Experimental: A stock solution of 2,4-di-tert-butylphenol (purchased from Beijing Solarbio Science & Technology Co., Ltd., HPLC≥99%) was prepared following the preparation method for bifenthrin stock solution. This stock solution was added to sterile artificial food at a final concentration of 100 mg/L. This food was used to feed 30 healthy 4-5 aged E. grisescens larvae. The control group was fed normal sterile artificial food.

SMILES: CC(C)(C)c1ccc(O)c(C(C)(C)C)c1 [2,4-di-tert-butylphenol]
- toxicity to E. grisescens larvae: little to no toxicity
- survival rate of E. grisescens larvae (control food 93.33%): 94.45%

— US12091653B2, “Strain of Glutamicibacter, originating from insects, capable of efficiently degrading bifenthrin” (Anhui Agricultural University, priority 2023, dated 2024)
